Experimental data from paper PMC8569553, “An improved assay to measure the phospholipid transfer activity of microsomal triglyceride transport protein” (Journal of Lipid Research, 2021).
Positions count from the first letter of the chain named.

Assays:
[1] = target: T1, human microsomal triglyceride transfer protein (hMTP) N649S mutant (Homo sapiens, UniProt P55157, N649S); test: NBD-lipid TAG and PL transfer assay in Cos-7 lysate, […] lomitapide; format: cell-based
T1 construct: gene MTTP; expressed in Cos-7 cells, lysate
T1 sequence (P55157 19-894 N649S): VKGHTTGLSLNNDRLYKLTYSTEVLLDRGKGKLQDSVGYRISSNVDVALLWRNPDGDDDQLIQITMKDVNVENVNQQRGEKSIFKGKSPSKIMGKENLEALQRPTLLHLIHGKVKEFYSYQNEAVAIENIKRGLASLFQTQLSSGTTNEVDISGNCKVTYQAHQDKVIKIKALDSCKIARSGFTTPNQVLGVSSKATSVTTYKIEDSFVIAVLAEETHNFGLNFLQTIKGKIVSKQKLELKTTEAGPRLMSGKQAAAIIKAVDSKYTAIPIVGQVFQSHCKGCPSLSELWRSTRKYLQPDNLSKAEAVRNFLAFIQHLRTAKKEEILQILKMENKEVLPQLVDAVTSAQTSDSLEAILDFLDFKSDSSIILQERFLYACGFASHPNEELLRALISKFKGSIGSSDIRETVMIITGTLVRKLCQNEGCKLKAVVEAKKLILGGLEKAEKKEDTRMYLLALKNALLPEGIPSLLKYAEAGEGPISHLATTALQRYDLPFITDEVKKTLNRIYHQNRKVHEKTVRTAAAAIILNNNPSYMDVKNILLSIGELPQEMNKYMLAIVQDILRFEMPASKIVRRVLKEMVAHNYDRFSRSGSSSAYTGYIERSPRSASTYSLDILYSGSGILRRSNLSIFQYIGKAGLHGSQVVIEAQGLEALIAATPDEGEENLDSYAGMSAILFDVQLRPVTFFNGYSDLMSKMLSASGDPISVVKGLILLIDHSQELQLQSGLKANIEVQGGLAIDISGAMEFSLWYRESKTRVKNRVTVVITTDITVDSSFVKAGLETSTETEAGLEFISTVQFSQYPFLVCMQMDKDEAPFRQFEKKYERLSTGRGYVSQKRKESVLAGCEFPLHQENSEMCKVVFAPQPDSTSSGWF

Drosophila MTP (dMTP) = target: T2, Drosophila MTP (dMTP) (Drosophila melanogaster, UniProt Q9VIH3); test: NBD-PE PL transfer assay in Cos-7 lysate, […] lomitapide (partial inhibition); format: cell-based
T2 construct: expressed in Cos-7 cells, lysate
T2 sequence (Q9VIH3 28-886): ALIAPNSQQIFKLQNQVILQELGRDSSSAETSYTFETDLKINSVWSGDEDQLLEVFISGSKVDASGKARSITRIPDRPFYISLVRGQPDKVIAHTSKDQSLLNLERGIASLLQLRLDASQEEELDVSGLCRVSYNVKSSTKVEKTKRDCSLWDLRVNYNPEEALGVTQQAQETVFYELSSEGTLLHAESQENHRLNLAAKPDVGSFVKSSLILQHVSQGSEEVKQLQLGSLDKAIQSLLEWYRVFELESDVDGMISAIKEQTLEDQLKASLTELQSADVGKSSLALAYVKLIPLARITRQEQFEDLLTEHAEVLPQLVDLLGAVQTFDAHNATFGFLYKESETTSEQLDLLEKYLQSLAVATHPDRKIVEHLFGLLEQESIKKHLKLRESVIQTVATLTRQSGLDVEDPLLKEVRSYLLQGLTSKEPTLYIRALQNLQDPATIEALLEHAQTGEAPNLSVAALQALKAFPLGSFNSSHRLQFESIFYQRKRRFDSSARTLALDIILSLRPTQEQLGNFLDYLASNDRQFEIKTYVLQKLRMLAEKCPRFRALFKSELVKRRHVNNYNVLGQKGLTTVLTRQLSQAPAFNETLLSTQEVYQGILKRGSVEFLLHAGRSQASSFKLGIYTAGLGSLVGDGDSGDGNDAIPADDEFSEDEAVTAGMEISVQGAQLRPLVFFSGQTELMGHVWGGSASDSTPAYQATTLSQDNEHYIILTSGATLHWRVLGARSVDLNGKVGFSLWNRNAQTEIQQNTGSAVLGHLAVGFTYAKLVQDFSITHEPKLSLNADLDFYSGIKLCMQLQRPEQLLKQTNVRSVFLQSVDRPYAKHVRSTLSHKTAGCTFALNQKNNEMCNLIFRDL

[2] = target: T3, human microsomal triglyceride transfer protein (hMTP) (Homo sapiens, UniProt P55157); test: fluorescent NBD-lipid vesicle transfer assay (PL and TAG) with purified MTP; format: biochemical
T3 construct: gene MTTP; hMTP-FLAG, purified from Cos-7 cells; with protein disulphide isomerase (PDI, β subunit)
T3 sequence (P55157 19-894): T1 sequence (P55157 19-894 N649S) with S631N

[3] = target: T4, mouse microsomal triglyceride transfer protein (mMTP) (Mus musculus, UniProt O08601); test: NBD-lipid TAG and PL transfer assay in liver homogenate with Mttp knockout control, […] lomitapide; format: cell-based
T4 construct: gene Mttp; endogenous, liver homogenate
T4 sequence (O08601 22-894): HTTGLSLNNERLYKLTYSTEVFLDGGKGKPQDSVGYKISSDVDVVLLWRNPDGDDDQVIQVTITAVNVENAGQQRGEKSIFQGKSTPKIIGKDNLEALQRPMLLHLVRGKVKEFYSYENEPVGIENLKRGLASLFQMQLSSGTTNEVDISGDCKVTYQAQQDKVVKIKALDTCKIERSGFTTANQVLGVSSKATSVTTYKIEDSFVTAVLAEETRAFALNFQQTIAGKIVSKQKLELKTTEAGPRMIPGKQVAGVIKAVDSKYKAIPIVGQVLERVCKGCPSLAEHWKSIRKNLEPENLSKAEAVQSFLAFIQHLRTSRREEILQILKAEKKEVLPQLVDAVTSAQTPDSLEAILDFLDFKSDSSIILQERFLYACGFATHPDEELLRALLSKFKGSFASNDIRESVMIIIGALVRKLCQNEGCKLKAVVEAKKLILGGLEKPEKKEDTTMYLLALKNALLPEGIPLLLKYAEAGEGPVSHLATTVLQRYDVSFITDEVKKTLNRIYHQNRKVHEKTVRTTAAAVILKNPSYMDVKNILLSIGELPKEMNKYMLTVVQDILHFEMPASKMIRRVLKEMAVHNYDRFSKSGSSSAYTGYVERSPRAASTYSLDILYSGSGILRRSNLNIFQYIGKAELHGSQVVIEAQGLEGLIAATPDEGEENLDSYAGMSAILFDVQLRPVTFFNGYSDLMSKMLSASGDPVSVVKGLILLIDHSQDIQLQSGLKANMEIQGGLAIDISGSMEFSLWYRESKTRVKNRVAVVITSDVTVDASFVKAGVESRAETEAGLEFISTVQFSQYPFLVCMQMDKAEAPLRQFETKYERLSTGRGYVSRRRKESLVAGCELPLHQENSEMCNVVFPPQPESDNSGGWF
T4 sequence (P09103 20-509 partner): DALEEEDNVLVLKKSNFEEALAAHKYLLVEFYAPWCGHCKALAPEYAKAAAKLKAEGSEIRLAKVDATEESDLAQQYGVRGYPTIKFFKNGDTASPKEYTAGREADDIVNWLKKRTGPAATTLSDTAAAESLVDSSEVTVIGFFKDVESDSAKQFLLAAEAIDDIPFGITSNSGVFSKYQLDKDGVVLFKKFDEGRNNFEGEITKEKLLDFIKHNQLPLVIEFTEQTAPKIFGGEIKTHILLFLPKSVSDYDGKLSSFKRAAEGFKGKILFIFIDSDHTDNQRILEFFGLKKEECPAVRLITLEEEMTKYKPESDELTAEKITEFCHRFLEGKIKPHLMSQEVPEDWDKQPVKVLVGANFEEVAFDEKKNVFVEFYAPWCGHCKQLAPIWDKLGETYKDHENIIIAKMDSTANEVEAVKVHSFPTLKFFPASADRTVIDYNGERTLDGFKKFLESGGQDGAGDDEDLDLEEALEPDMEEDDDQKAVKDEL

IC50 [2]: 0.01 µM
SMILES: O=C(NC1CCN(CCCCC2(C(=O)NCC(F)(F)F)c3ccccc3-c3ccccc32)CC1)c1ccccc1-c1ccc(C(F)(F)F)cc1 [lomitapide]
NBD-lipid TAG and PL transfer assay in Cos-7 lysate, 1 μM lomitapide [1]: resulted in significantly lower TAG transfer activity, which was completely inhibited by lomitapide
NBD-PE PL transfer assay in Cos-7 lysate, 1 μM lomitapide (partial inhibition) (Drosophila MTP (dMTP)): This activity was partially inhibited by lomitapide.
NBD-lipid TAG and PL transfer assay in liver homogenate with Mttp knockout contr [3]: substantial TAG transfer activity in Mttp^fl/fl liver tissue, and this activity was inhibited by lomitapide
